# Results from PMC10001950 (International Journal of Molecular Sciences, 2023).
# Target: T1, BoNT/A LC (Clostridium botulinum, UniProt P0DPI0)
# Test: biochemical
# Assay type: biochemical
# T1 sequence (P0DPI0 2-448 limits assumed): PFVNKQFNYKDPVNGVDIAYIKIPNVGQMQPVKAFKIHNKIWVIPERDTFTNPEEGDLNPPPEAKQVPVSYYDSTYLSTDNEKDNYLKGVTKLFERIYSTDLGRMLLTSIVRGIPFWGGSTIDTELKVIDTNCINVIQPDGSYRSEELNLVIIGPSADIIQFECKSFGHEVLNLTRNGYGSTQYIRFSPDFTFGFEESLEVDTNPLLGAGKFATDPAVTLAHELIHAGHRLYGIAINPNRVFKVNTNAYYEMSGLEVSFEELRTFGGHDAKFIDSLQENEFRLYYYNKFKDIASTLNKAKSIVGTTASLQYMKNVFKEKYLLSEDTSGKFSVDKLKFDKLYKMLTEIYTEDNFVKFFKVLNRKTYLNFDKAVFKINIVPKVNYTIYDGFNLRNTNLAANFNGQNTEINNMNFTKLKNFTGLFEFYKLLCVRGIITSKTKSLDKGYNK
Molecule,IC50 [µM],fold more potent than initial lead 1,inhibitory activity against BoNT/A LC (in words),decrease in inhibition [fold],potency compared to 2 (in words)
"O=c1cc(COCc2ccccc2F)nc2c(O)cccn12 [Compound 31, 2-(((2-Fluorobenzyl)oxy)methyl)-9-hydroxy-4H-pyrido [1,2-a]pyrimidin-4-one]",18 ± 2,–,–,–,–
O=C(O)[C@@H]1CN(Cc2cc(=O)n3cccc(O)c3n2)C[C@H]1c1ccccn1 [Compound 3],1.3 ± 0.2,approximately seven-fold,–,–,–
"O=c1cc(CN2CCc3ccc(-c4ccccc4)cc32)nc2c(O)cccn12 [Compound 56, 9-Hydroxy-2-((6-phenylindolin-1-yl)methyl)-4H-pyrido [1,2-a]pyrimidin-4-one]",0.6 ± 0.1,–,–,–,–
"2-(((4-Chlorobenzyl)amino)methyl)-4H-pyrido [1,2-a]pyrimidin-4-one [Compound 10]",–,–,complete ablation of inhibitory activity,–,–
"COc1ccc(CNCc2cc(=O)n3cccc(O)c3n2)cc1 [Compound 21, 9-Hydroxy-2-(((4-methoxybenzyl)amino)methyl)-4H-pyrido [1,2-a]pyrimidin-4-one]",1.9 ± 0.2,–,–,–,–
"Oc1cccc2ccc(CNCc3ccccc3)nc12 [Compound 14, 2-((Benzylamino)methyl)quinolin-8-ol]",–,–,–,15,–
"O=c1cc(CCCc2ccccc2)nc2c(O)cccn12 [Compound 7, 9-Hydroxy-2-(3-phenylpropyl)-4H-pyrido [1,2-a]pyrimidin-4-one]",–,–,drastic decrease in inhibitory activity,–,–
"Cc1cccc(COCc2cc(=O)n3cccc(O)c3n2)c1 [Compound 38, 9-Hydroxy-2-(((3-methylbenzyl)oxy)methyl)-4H-pyrido [1,2-a]pyrimidin-4-one]",6.6 ± 0.5,–,–,–,–
"O=c1cc(CNCc2ccc(Cl)cc2)nc2c(O)cccn12 [Compound 19, 2-(((4-Chlorobenzyl)amino)methyl)-9-hydroxy-4H-pyrido [1,2-a]pyrimidin-4-one]",1.1 ± 0.1,–,–,–,–
"COc1cccc(CNCc2cc(=O)n3cccc(O)c3n2)c1 [Compound 20, 9-Hydroxy-2-(((3-methoxybenzyl)amino)methyl)-4H-pyrido [1,2-a]pyrimidin-4-one]",0.49 ± 0.09,–,–,–,–
"CN(C)Cc1cc(=O)n2cccc(O)c2n1 [Compound 15, 2-((Dimethylamino)methyl)-9-hydroxy-4H-pyrido [1,2-a]pyrimidin-4-one]",> 64,–,–,–,–
"COC(=O)c1cccc(CNCc2cc(=O)n3cccc(O)c3n2)c1 [Compound 24, Methyl 3-((((9-hydroxy-4-oxo-4H-pyrido [1,2-a]pyrimidin-2-yl)methyl)amino)methyl) benzoate]",0.41 ± 0.08,–,–,–,–
"O=c1cc(COCc2ccccc2)nc2c(O)cccn12 [Compound 30, 2-((Benzyloxy)methyl)-9-hydroxy-4H-pyrido [1,2-a]pyrimidin-4-one]",2.5 ± 0.3,–,–,–,–
"O=c1cc(CN2CCc3ccccc32)nc2c(O)cccn12 [Compound 46, 9-Hydroxy-2-(indolin-1-ylmethyl)-4H-pyrido [1,2-a]pyrimidin-4-one]",2.9 ± 0.1,–,–,–,–
"O=c1cc(COCc2ccc(F)cc2)nc2c(O)cccn12 [Compound 33, 2-(((4-Fluorobenzyl)oxy)methyl)-9-hydroxy-4H-pyrido [1,2-a]pyrimidin-4-one]",15 ± 1,–,–,–,–
"COc1ccc2c(c1)N(Cc1cc(=O)n3cccc(O)c3n1)CC2 [Compound 51, 9-Hydroxy-2-((6-methoxyindolin-1-yl)methyl)-4H-pyrido [1,2-a]pyrimidin-4-one]",> 64,–,–,–,–
"Cc1cccc(CNCc2cc(=O)n3cccc(O)c3n2)c1 [Compound 22, 9-Hydroxy-2-(((3-methylbenzyl)amino)methyl)-4H-pyrido [1,2-a]pyrimidin-4-one]",0.5 ± 0.1,–,–,–,–
"O=c1cc(CN2Cc3ccc(Br)cc3C2)nc2c(O)cccn12 [Compound 44, 2-((5-Bromoisoindolin-2-yl)methyl)-9-hydroxy-4H-pyrido [1,2-a]pyrimidin-4-one]",0.4 ± 0.02,–,–,–,–
"COC(=O)c1ccc2c(c1)N(Cc1cc(=O)n3cccc(O)c3n1)CC2 [Compound 53, Methyl-1-((9-hydroxy-4-oxo-4H-pyrido [1,2-a]pyrimidin-2-yl)methyl)indoline-6-carboxylate]",1.1 ± 0.1,–,–,–,–
"O=c1cc(COCc2ccccc2Cl)nc2c(O)cccn12 [Compound 34, 2-(((2-Chlorobenzyl)oxy)methyl)-9-hydroxy-4H-pyrido [1,2-a]pyrimidin-4-one]",9 ± 2,–,–,–,–
"O=c1cc(CNCc2ccc(F)cc2)nc2c(O)cccn12 [Compound 17, 2-(((4-Fluorobenzyl)amino)methyl)-9-hydroxy-4H-pyrido [1,2-a]pyrimidin-4-one]",1.2 ± 0.2,–,–,–,–
"O=c1cc(CNCc2cccc(F)c2)nc2c(O)cccn12 [Compound 16, 2-(((3-Fluorobenzyl)amino)methyl)-9-hydroxy-4H-pyrido [1,2-a]pyrimidin-4-one]",0.6 ± 0.1,–,–,–,–

Molecule,IC50 [µM],fold more potent than initial lead 1,inhibitory activity against BoNT/A LC (in words),decrease in inhibition [fold],potency compared to 2 (in words)
"O=c1cc(CN2Cc3ccc(Cl)cc3C2)nc2c(O)cccn12 [Compound 43, 2-((5-Chloroisoindolin-2-yl)methyl)-9-hydroxy-4H-pyrido [1,2-a]pyrimidin-4-one]",0.5 ± 0.2,–,–,–,–
"O=c1cc(CN2Cc3ccccc3C2)nc2c(O)cccn12 [Compound 42, 9-Hydroxy-2-(isoindolin-2-ylmethyl)-4H-pyrido [1,2-a]pyrimidin-4-one]",1.2 ± 0.1,–,–,–,equipotent
"COC(=O)c1ccc(CNCc2cc(=O)n3cccc(O)c3n2)cc1 [Compound 25, Methyl 4-((((9-hydroxy-4-oxo-4H-pyrido [1,2-a]pyrimidin-2-yl)methyl)amino)methyl) benzoate]",> 64,–,–,–,–
"O=c1cc(CN2CCc3cc(Br)ccc32)nc2c(O)cccn12 [Compound 48, 2-((5-Bromoindolin-1-yl)methyl)-9-hydroxy-4H-pyrido [1,2-a]pyrimidin-4-one]",0.7 ± 0.1,–,–,–,–
"O=c1cc(CN2Cc3ccc(-c4ccccc4)cc3C2)nc2c(O)cccn12 [Compound 45, 9-Hydroxy-2-((5-phenylisoindolin-2-yl)methyl)-4H-pyrido [1,2-a]pyrimidin-4-one]",0.7 ± 0.1,–,–,–,–
"O=c1cc(COCc2cccc([N+](=O)[O-])c2)nc2c(O)cccn12 [Compound 40, 9-Hydroxy-2-(((3-nitrobenzyl)oxy)methyl)-4H-pyrido [1,2-a]pyrimidin-4-one]",9.7 ± 0.8,–,–,–,–
"O=c1cc(CNCCc2ccccc2)nc2c(O)cccn12 [Compound 29, 9-Hydroxy-2-((phenethylamino)methyl)-4H-pyrido [1,2-a]pyrimidin-4-one]",10 ± 1,–,–,–,–
"O=c1cc(COCc2cccc(O)c2)nc2c(O)cccn12 [Compound 37, 9-Hydroxy-2-(((3-hydroxybenzyl)oxy)methyl)-4H-pyrido [1,2-a]pyrimidin-4-one]",26 ± 2,–,–,–,–
"CCc1cc(=O)n2cccc(O)c2n1 [Compound 6, 2-Ethyl-9-hydroxy-4H-pyrido [1,2-a]pyrimidin-4-one]",–,–,a decrease in inhibitory potency,–,–
CC(O)c1cc2n(n1)CCN(Cc1cc(=O)n3cccc(O)c3n1)C2 (stereo not shown) [Compound 4],7 ± 1,–,–,–,–
"CN(Cc1ccc(-c2ccccc2)cc1)Cc1cc(=O)n2cccc(O)c2n1 [Compound 28, 2-((([1,1′-biphenyl]-4-ylmethyl)(methyl)amino)methyl)-9-hydroxy-4H-pyrido [1,2-a]pyrimidin-4-one]",12 ± 0.2,–,–,–,–
"Cc1ccc(CNCc2cc(=O)n3cccc(O)c3n2)cc1 [Compound 23, 9-Hydroxy-2-(((4-methylbenzyl)amino)methyl)-4H-pyrido [1,2-a]pyrimidin-4-one]",1.4 ± 0.9,–,–,–,–
"NCc1cc(=O)n2cccc(O)c2n1 [Compound 13, 2-(Aminomethyl)-9-hydroxy-4H-pyrido [1,2-a]pyrimidin-4-one]",–,–,a decrease in inhibitory potency,–,–
"O=c1cc(CN2CCc3ccc(Br)cc32)nc2c(O)cccn12 [Compound 49, 2-((6-Bromoindolin-1-yl)methyl)-9-hydroxy-4H-pyrido [1,2-a]pyrimidin-4-one]",0.7 ± 0.05,–,–,–,–
"CCOc1cccn2c(=O)cc(CNCc3ccccc3)nc12 [Compound 11, 2-((Benzylamino)methyl)-9-ethoxy-4H-pyrido [1,2-a]pyrimidin-4-one]",–,–,had a similar effect,–,–
"Cc1ccc(COCc2cc(=O)n3cccc(O)c3n2)cc1 [Compound 39, 9-Hydroxy-2-(((4-methylbenzyl)oxy)methyl)-4H-pyrido [1,2-a]pyrimidin-4-one]",9.1 ± 0.5,–,–,–,–
"COc1cc(COCc2cc(=O)n3cccc(O)c3n2)cc(OC)c1 [Compound 41, 2-(((3,5-Dimethoxybenzyl)oxy)methyl)-9-hydroxy-4H-pyrido [1,2-a]pyrimidin-4-one]",5.2 ± 0.2,–,–,–,–
"O=c1cc(COCc2ccc(Cl)cc2)nc2c(O)cccn12 [Compound 36, 2-(((4-Chlorobenzyl)oxy)methyl)-9-hydroxy-4H-pyrido [1,2-a]pyrimidin-4-one]",4.13 ± 0.09,–,–,–,–
"O=c1cc(CNCc2cccc(-c3ccccc3)c2)nc2c(O)cccn12 [Compound 26, 2-((([1,1′-biphenyl]-3-ylmethyl)amino)methyl)-9-hydroxy-4H-pyrido [1,2-a]pyrimidin-4-one]",0.6 ± 0.1,–,–,–,–
"O=c1cc(CN2CCc3cc(-c4ccccc4)ccc32)nc2c(O)cccn12 [Compound 55, 9-Hydroxy-2-((5-phenylindolin-1-yl)methyl)-4H-pyrido [1,2-a]pyrimidin-4-one]",0.9 ± 0.3,–,–,–,–
"COC(=O)c1ccc2c(c1)CCN2Cc1cc(=O)n2cccc(O)c2n1 [Compound 52, Methyl1-((9-hydroxy-4-oxo-4H-pyrido [1,2-a]pyrimidin-2-yl)methyl)indoline-5-carboxylate]",1.2 ± 0.7,–,–,–,–
"Cc1cccc2c1N(Cc1cc(=O)n3cccc(O)c3n1)CC2 [Compound 50, 9-Hydroxy-2-((7-methylindolin-1-yl)methyl)-4H-pyrido [1,2-a]pyrimidin-4-one]",24 ± 14,–,–,–,–

# Target: T1, BoNT/A LC
# Test: biochemical
# Remark: another data set of the same source
Molecule,Ki [µM],kinact [s⁻¹],kinact/KI [M⁻¹ s⁻¹]
CS(=O)(=O)SCCCCCCCc1ccn2c(=O)cc(CNCc3ccc(-c4ccccc4)cc3)nc2c1O [Compound 84],32 ± 6,0.0038 ± 0.0008,120 ± 30
"CS(=O)(=O)SCCCCCCc1ccn2c(=O)cc(CNCc3ccc(-c4ccccc4)cc3)nc2c1O [Compound 83, S-(6-(2-((([1,1′-biphenyl]-4-ylmethyl)amino)methyl)-9-hydroxy-4-oxo-4H-pyrido [1,2-a]pyrimidin-8-yl)hexyl) methanesulfonothioate]",3.4 ± 0.5,0.0028 ± 0.0002,820 ± 30
